Source: patent US8466170B2, “7-azaindole derivatives” (Merck Patent GmbH, priority 2008, dated 2013)

Experiments:
Type in all cases: biochemical
SGK1 = target: T1, SGK1 (Homo sapiens, UniProt O00141); assay: SGK1 enzyme inhibition (filter binding method); conditions: Target SGK1
T1 sequence (O00141 1-431): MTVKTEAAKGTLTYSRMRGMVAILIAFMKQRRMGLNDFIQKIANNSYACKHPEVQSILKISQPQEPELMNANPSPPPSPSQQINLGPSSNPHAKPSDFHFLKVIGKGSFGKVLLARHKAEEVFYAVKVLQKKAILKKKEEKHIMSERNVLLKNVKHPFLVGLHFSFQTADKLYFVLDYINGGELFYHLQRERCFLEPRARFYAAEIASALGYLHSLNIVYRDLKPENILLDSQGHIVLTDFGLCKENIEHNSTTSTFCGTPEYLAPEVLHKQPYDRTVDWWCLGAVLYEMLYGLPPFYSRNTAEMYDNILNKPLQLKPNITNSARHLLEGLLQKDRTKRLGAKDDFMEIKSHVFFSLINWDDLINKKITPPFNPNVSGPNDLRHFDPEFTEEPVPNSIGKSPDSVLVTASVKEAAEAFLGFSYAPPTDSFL
Excerpt: The inhibition of SGK1 protein kinase can be determined in the filter binding method.

Met kinase = target: T2, Met kinase (Homo sapiens, UniProt P08581); assay: Met kinase flashplate method; conditions: Target Met kinase; read-out: Inhibition IC50 (enzyme)
T2 construct: 6His (N); purchased Upstate 14-526; host or cells: Sf21 insect cells (S. frugiperda), baculovirus
T2 sequence (P08581 974-1390 limits assumed): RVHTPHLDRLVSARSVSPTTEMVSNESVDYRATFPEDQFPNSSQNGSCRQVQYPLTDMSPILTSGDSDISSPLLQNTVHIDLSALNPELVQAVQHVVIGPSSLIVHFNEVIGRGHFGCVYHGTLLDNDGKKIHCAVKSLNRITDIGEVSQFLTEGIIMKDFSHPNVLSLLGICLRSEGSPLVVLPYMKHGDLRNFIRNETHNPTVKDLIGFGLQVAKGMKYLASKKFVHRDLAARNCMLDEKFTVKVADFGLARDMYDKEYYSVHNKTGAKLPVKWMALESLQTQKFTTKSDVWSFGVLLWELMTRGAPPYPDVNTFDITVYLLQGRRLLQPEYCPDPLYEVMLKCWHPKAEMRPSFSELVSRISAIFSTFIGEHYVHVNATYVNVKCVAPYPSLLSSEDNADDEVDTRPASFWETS
Excerpt: According to the manufacturer's data (Met, active, Upstate, catalogue No. 14-526), Met kinase is expressed for the purposes of protein production in insect cells (Sf21; S. frugiperda) and subsequent affinity-chromatographic purification as “N-terminal 6His-tagged” recombinant human protein in a baculovirus expression vector.
The kinase activity can be measured using various available measurement systems. In the scintillation proximity method (Sorg et al., J. of Biomolecular Screening, 2002, 7, 11-19), the flashplate method or the filter binding test, the radioactive phosphorylation of a protein or peptide as substrate is measured using radioactively labelled ATP (^32P-ATP, ^33P-ATP). In the case of the presence of an inhibitory compound, a reduced radioactive signal, or none at all, can be detected. Furthermore, homogeneous time-resolved fluorescence resonance energy transfer (HTR-FRET) and fluoroescence polarisation (FP) technologies can be used as assay methods (Sills et al., J. of Biomolecular Screening, 2002, 191-214).
The test plates used are 96-well Flashplate^R microtitre plates from Perkin Elmer (Cat. No. SMP200). […] The measurement of the bound radioactivity is carried out by means of a scintillation measuring instrument (Topcount NXT, Perkin-Elmer).
The full value used is the inhibitor-free kinase reaction. […] The inhibitory values (IC50) are determined using the RS1_MTS program. […]

CHK2 = CHK2 (Homo sapiens, UniProt O96017); assay: CHK2 enzyme inhibition; conditions: Target CHK2
Chain of CHK2 (O96017 whole entry, species assumed): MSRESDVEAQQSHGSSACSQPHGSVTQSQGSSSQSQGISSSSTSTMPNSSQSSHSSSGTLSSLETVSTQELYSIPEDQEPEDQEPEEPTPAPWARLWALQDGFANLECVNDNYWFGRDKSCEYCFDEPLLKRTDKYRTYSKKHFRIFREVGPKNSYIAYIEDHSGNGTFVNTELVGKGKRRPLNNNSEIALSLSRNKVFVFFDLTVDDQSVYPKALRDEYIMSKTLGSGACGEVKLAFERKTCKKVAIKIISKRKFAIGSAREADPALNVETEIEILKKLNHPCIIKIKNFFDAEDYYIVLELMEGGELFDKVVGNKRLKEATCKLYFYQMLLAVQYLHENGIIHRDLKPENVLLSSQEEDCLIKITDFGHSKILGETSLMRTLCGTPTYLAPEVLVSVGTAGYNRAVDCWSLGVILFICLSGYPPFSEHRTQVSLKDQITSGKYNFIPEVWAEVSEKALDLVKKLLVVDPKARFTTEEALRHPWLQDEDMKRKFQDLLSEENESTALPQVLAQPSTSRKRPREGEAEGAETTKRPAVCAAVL

MKK1 = MKK1 (Homo sapiens, UniProt Q02750); assay: MKK1 enzyme inhibition; conditions: Target MKK1
Chain of MKK1 (Q02750 whole entry, species assumed): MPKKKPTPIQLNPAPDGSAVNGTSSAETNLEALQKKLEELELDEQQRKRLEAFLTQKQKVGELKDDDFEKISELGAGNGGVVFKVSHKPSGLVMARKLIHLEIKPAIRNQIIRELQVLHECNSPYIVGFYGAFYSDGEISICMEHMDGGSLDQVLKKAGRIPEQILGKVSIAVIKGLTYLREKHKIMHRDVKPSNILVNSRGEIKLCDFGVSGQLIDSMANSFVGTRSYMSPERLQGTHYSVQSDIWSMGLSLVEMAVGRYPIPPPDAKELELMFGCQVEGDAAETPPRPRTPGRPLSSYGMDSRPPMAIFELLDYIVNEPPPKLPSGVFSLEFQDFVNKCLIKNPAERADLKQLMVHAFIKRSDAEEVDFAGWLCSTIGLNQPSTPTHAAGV

GSK3-beta = GSK3-beta (Homo sapiens, UniProt P49841); assay: Measurement of the GSK3-beta activity; conditions: Target GSK3-beta; read-out: Inhibition IC50 (enzyme)
Chain of GSK3-beta (P49841 whole entry, species assumed): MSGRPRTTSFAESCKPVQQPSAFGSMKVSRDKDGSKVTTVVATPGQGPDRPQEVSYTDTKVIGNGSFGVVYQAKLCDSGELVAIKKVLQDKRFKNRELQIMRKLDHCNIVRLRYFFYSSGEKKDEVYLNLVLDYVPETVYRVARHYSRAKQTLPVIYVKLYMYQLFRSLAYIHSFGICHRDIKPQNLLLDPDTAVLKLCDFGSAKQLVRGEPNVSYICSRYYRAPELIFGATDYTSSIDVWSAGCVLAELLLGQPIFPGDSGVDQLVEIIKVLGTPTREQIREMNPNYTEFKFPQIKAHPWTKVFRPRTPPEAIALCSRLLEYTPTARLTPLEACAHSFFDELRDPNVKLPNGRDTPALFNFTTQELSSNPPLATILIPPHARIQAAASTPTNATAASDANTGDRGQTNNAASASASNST
Experimental: The GSK3-beta activity can be measured analogously to WO 2008/078196. GSK3b (5-20 mU diluted in 20 mM MOPS ph 7.5, 1 mM EDTA, […], 0.01% Brj35, 5% glycerol, 0.1% beta-mercaptoethanol, 1 mg/ml of BSA) is measured against phospho-GS2 peptide ([…](PO4)EDEEE) in a final volume of 25.5 μl containing 8 mM MOPS ph 7.0, 0.2 mM EDTA, 20 μM phospho GS2 peptide, 10 mM magnesium acetate and 0.005 mM [33P-g-ATP] (50-1000 cpm/pmol) and is incubated at room temperature for 30 minutes. The assay is stopped by addition of 5 μl of 0.5 M (3%) orthophosphoric acid and is then harvested on P81 unifilter plates with a wash buffer (50 mM orthophosphoric acid).

AMPK = AMPK enzyme inhibition; conditions: Target AMPK
SAPK3 = target: T3, SAPK3 (Homo sapiens, UniProt P53778); assay: SAPK3 enzyme inhibition; conditions: Target SAPK3
T3 sequence (P53778 1-367): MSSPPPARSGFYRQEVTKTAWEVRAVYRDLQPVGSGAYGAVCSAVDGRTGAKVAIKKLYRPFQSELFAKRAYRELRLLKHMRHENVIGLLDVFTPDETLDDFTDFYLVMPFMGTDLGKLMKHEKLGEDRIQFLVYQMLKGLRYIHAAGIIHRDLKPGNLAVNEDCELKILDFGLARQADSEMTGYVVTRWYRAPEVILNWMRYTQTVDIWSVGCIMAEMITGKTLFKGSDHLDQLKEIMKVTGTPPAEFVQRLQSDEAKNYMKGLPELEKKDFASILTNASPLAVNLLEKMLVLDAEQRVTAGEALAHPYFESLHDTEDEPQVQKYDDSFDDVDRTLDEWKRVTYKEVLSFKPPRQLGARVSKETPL

| SMILES | IC50 (SGK1) [µM] | further results |
| --- | --- | --- |
| COc1cccc(CNc2nnc(-c3c[nH]c4ncccc34)n2Cc2ccccc2)c1 [Compound A9, [4-benzyl-5-(1H-pyrrolo[2,3-b]pyridin-3-yl)-4H-1,2,4-triazol-3-yl]-(3-methoxybenzyl)amine] | 0.1 to 10 | – |
| Nc1nnc(-c2c[nH]c3ncccc23)o1 [Compound A3, 5-(1H-pyrrolo[2,3-b]pyridin-3-yl)-1,3,4-oxadiazol-2-ylamine] | 0.1 to 10 | – |
| c1ccc(Nc2nnc(-c3c[nH]c4ncccc34)o2)cc1 [Compound A2, phenyl-[5-(1H-pyrrolo[2,3-b]pyridin-3-yl)-1,3,4-oxadiazol-2-yl]amine] | 0.1 to 10 | – |
| Fc1cccc(CNc2nnc(-c3c[nH]c4ncccc34)o2)c1 [Compound A5] | 0.001 to 0.1 | IC50 (Met kinase): 0.1 to 10 µM |
| COc1cccc(CNc2nnc(-c3c[nH]c4ncccc34)n2N)c1 [Compound A10, N*3*-(3-methoxybenzyl)-5-(1H-pyrrolo[2,3-b]pyridin-3-yl)-1,2,4-triazole-3,4-diamine] | 0.1 to 10 | – |
| COc1cccc(CNc2nnc(-c3c[nH]c4ncc(-c5cn[nH]c5)cc34)o2)c1 [Compound A6] | 0.1 to 10 | – |
| COc1cccc(CNc2nnc(-c3c[nH]c4ncc(Br)cc34)o2)c1 [Compound A4] | 0.001 to 0.1 | IC50 (Met kinase): 0.1 to 10 µM |
| COc1cccc(CNc2nnc(-c3c[nH]c4ncccc34)o2)c1 [Compound A1, (3-methoxybenzyl)-[5-(1H-pyrrolo[2,3-b]pyridin-3-yl)-1,3,4-oxadiazol-2-yl]amine] | 0.001 to 0.1 | IC50 (CHK2): 0.001 to 0.1 µM; IC50 (MKK1): 0.001 to 0.1 µM; IC50 (GSK3-beta): 0.001 to 0.1 µM; IC50 (AMPK): 0.001 to 0.1 µM; IC50 (SAPK3): 0.1 to 10 µM |
